In ChEMBL document CHEMBL3872238, “Selectivity switch between FAK and Pyk2: Macrocyclization of FAK inhibitors improves Pyk2 potency” (Bioorg Med Chem Lett, 2016):
In brackets after ≈: the same amount, converted by molar mass.

Tests used:
[1] = Half life in human liver microsomes; type: ADME
[2] = Half life in mouse liver microsomes; type: ADME
[3] = Permeability from basolateral side to apical side in human Caco2 cells; type: ADME, cell-based; details: Caco-2, read-out: permeability
[4] = Permeability from apical side to basolateral side in human Caco2 cells; type: ADME, cell-based; details: Caco-2, read-out: permeability
[5] = Half life in dog liver microsomes; type: ADME, Canis lupus familiaris
[6] = Kinetic solubility of compound at pH 7; type: physicochemical; details: buffer, read-out: Kinetic_solubility

## CS(=O)(=O)N1CCCCC(=O)N2CCc3cc(ccc32)Nc2ncc(C(F)(F)F)c(n2)NCc2cccnc21
[1]
  half-life: < 1 h
[2]
  half-life: < 1 h
[3]
  Papp B→A: 32 ×10⁻⁶ cm/s
[4]
  Papp A→B: 30 ×10⁻⁶ cm/s
[5]
  half-life: < 1 h

## CN1Cc2ccccc2N(S(C)(=O)=O)CCCCC(=O)N2CCc3cc(ccc32)Nc2ncc(C(F)(F)F)c1n2
[1]
  half-life: < 1 h
[2]
  half-life: < 1 h
[6]
  solubility kinetic: < 1.6 µM
[5]
  half-life: < 1 h

## CCS(=O)(=O)N1CCCCC(=O)N2CCc3cc(ccc32)Nc2ncc(C(F)(F)F)c(n2)NCc2ccccc21
[1]
  half-life: < 1 h
[2]
  half-life: < 1 h
[6]
  solubility kinetic: < 1.6 µM
[5]
  half-life: < 1 h

## CS(=O)(=O)N1CCCCC(=O)N2CCc3cc(ccc32)Nc2ncc(C(F)(F)F)c(n2)NCc2ccccc21
[1]
  half-life: < 1 h
[2]
  half-life: < 1 h
[6]
  solubility kinetic: < 1.6 µM
[5]
  half-life: < 1 h

## CS(=O)(=O)N1C/C=C/c2cccc(c2)Nc2ncc(C(F)(F)F)c(n2)NCc2cccnc21
[6]
  solubility kinetic: 0.3 µM (≈ 0.143 µg/mL)

## CN1Cc2cccnc2N(S(C)(=O)=O)C/C=C/c2cc(ccc2N2CCOCC2)Nc2ncc(C(F)(F)F)c1n2
[6]
  solubility kinetic: 1 µM (≈ 0.576 µg/mL)

## CN1Cc2ccncc2N(S(C)(=O)=O)C/C=C/c2cc(ccc2N2CCOCC2)Nc2ncc(C(F)(F)F)c1n2
[1]
  half-life: 4.38 h
[6]
  solubility kinetic: 3 µM (≈ 1.73 µg/mL)

## CN(c1ncccc1CNc1nc(Nc2ccc3c(c2)CC(=O)N3)ncc1C(F)(F)F)S(C)(=O)=O [PF-00562271]
[3]
  Papp B→A: 29 ×10⁻⁶ cm/s
[4]
  Papp A→B: 11 ×10⁻⁶ cm/s
